Measured values taken from patent US20240158418A1 (C4 Therapeutics, Inc., priority 2021, published 2024).

Key:
[1] = Tolerability / body weight change on oral dosing in tumor-bearing mice; format: in vivo
Experimental: (§1) Compound 1 was dosed at 20, 50, or 100 mg/kg/day and was formulated in PEG400 (20% v/v)+80% v/v SBECD (25% w/v) in ddH2O. […] Body weight and MTV were measured on a 2× weekly schedule. Statistical analysis was performed using a one-way ANOVA. Data are expressed as MTV±SEM.
as §1, with “1 and Compound 2 were” for “1 was”, “one-way ANOVA followed by Dunnett's multiple comparison test.” for “one-way ANOVA.”
2×10^5 luciferase-expressing NCI-H1975-luc tumor cells suspended in 2 μL RPMI-1640 media were injected into the right forebrain of female BALB/c nude mice. Tumor growth was monitored using imaging analysis. Mice were injected intraperitoneally with 15 mg/mL of D-luciferin and anesthetized with 1-2% isoflurane inhalation. 10 minutes post luciferin injection, mice were imaged using IVIS Lumina III (Perkin Elmer) and total bioluminescence signal (BLI, photons/s) was measured in a region of interest (ROI). BLI from ROI were quantified and used as an indicator of tumor burden. […] Body weight and MTV were measured on a 2× weekly schedule. Statistical analysis was calculated using the Mann-Whitney U test. Data are expressed as bioluminescent signal (photons/s). […]

pY1068 EGFR WT = target: T1, pY1068 EGFR WT (Homo sapiens, UniProt P00533); experiment: Phospho-EGFR (pY1068) inhibition HTRF, A431; format: cell-based; conditions: A431 (wild-type), 6 hours; read-out: pEGFR IC50
T1 construct: A431 (harboring EGFR wildtype) was purchased from ATCC; host or cells: A431
T1 sequence (P00533 25-1210): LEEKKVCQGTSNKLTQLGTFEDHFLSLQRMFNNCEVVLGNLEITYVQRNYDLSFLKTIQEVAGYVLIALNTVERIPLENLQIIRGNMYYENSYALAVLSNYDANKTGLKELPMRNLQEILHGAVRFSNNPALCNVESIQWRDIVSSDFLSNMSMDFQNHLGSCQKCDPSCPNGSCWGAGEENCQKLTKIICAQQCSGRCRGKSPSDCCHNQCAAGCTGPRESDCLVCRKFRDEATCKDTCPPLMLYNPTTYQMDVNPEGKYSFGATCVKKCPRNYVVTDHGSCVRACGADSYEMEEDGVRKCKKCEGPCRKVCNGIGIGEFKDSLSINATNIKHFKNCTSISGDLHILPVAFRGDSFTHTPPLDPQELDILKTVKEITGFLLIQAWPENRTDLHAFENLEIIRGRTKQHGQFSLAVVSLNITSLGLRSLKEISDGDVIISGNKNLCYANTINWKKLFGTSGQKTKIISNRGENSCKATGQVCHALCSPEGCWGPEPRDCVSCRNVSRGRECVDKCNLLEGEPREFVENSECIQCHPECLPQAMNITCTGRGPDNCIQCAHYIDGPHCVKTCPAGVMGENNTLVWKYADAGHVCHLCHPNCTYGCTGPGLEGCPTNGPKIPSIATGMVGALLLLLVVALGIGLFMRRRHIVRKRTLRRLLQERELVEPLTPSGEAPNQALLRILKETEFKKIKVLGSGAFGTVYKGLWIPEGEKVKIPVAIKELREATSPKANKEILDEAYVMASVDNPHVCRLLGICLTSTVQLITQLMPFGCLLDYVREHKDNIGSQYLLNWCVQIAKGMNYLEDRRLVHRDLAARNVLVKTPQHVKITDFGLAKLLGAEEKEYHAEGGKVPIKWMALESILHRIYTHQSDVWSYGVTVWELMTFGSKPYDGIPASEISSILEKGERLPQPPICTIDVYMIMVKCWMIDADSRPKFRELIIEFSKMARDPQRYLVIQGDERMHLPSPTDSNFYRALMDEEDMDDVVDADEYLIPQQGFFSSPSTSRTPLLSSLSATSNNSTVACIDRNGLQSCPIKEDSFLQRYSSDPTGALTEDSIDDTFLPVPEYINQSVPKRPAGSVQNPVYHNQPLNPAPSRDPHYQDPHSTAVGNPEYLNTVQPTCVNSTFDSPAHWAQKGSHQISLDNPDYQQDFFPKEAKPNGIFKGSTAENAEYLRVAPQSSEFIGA
Excerpt: NCI-H1975 (harboring EGFR heterozygous L858R-T790M mutations) and NCI-H3255 (harboring EGFR heterozygous L858R mutation) were purchased from ATCC and NCI, respectively. NCI-H1975+CS (harboring EGFR heterozygous L858R-T790M-C797S mutations) was generated using CRISPR technology to introduce the additional C797S mutation by Horizon Discovery. A431 (harboring EGFR wildtype) was purchased from ATCC. RPMI 1640 no-phenol red medium and fetal bovine serum (FBS) were purchased from Gibco (Grand Island, NY, USA). Cell culture flasks and 384-well microplates were acquired from VWR (Radnor, PA, USA). Phosphorylated (pY1068) EGFR and Total EGFR (using L858R-specific detection antibody and pan-EGFR antibody for EGFR mutant cell lines and EGFR wild-type cell lines, respectively) HTRF assay kits were purchased from Cisbio (Bedford, MA, USA).
Degradation of EGFR protein containing L858R mutation or wild-type was determined based on quantification of FRET signal using a Total EGFR (L858R-specific or pan-EGFR detecting) HTRF assay kit. Phospho-EGFR (pEGFR) inhibition was determined based on quantification of FRET signal using a pY1068 EGFR HTRF assay kit. In separate assay plates, test compounds were added to the 384-well plate from a top concentration of 10 μM with 11 points, half log titration in duplicates. […] FRET signal was acquired on EnVision™ Multilabel Reader (PerkinElmer, Santa Clara, CA, USA). […]

SMILES | tolerability of oral dosing [1] | IC50 (pY1068 EGFR WT) [µM]
O=C1CC[C@H](Nc2ccc(N3CCC(O)(CC(=O)N4CC5(C4)CN(c4ccc(-c6cc(F)c7c(c6)C(=O)N(C(C(=O)Nc6nccs6)c6ncn8c6CCC8)C7)cc4)C5)CC3)c(F)c2)C(=O)N1 (stereo partly drawn) [Compound 1, 2-(6,7-dihydro-5H-pyrrolo[1,2-c]imidazol-1-yl)-2-[6-[4-[2-[2-[1-[4-[[(3S)-2,6-dioxo-3-piperidyl]amino]-2-fluoro-phenyl]-4-hydroxy-4-piperidyl]acetyl]-2,6-diazaspiro[3.3]heptan-6-yl]phenyl]-4-fluoro-1-oxo-isoindolin-2-yl]-N-thiazol-2-yl-acetamide] | well tolerated | > 10
Cn1nc(N2CCC(=O)NC2=O)c2ccc([C@H]3CCN(CC(=O)N4CC5(C4)CN(c4ccc(-c6cc(F)c7c(c6)C(=O)N(C(C(=O)Nc6nccs6)c6ncn8c6CCC8)C7)cc4)C5)CC3(F)F)cc21 (stereo partly drawn) [Compound 2, 2-(6,7-dihydro-5H-pyrrolo[1,2-c]imidazol-1-yl)-2-[6-[4-[2-[2-[(4R)-4-[3-(2,4-dioxohexahydropyrimidin-1-yl)-1-methyl-indazol-6-yl]-3,3-difluoro-1-piperidyl]acetyl]-2,6-diazaspiro[3.3]heptan-6-yl]phenyl]-4-fluoro-1-oxo-isoindolin-2-yl]-N-thiazol-2-yl-acetamide] | well tolerated | > 10
